# Assay results published in patent US12691070B2, “Cationic lipids and preparation method thereof” (RiboX Therapeutics HK Limited, priority 2023, dated 2026).
# How the values were obtained:
# [1] = LNP size and polydispersity index (PDI) by dynamic light scattering; type: physicochemical; settings: for Size: in nm (unit assumed)
# How it was run: (§1)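 LNPs of ionizable lipid/DSPC/cholesterol/DMG-PEG 2000 (50:10:38.5:1.5) made by microfluidic mixing of luciferase circRNA or mRNA in pH 4.5 acetate with lipids in ethanol (3:1, 12 ml/min), ionizable lipid:nucleotide 15 or 6, then dialyzed against PBS. Size, PDI (DLS) and zeta potential on Zetasizer; encapsulation by Ribogreen ± Triton X-100.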
# [2] = LNP zeta potential (Zetasizer); type: physicochemical
# How it was run: as §1
# [3] = RNA encapsulation efficacy by Quant-IT Ribogreen kit; type: physicochemical; settings: for Encapsulation Efficiency %: LNP with cirRNA (SEQ ID NO: 1); for Encapsulation Efficiency: LNP with mRNA (SEQ ID NO: 2)
# How it was run: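 Ribogreen read-out: encapsulation = 100% − (signal of intact RNA-LNPs / signal with Triton X-100). Particles: ionizable lipid:DSPC:Chol:DMG-PEG2000 50:10:38.5:1.5, ionizable lipid:ribonucleotide 15 or 6, final lipid 1.5–6 mM, PBS-dialyzed.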
# Hep G2 cells [4] = assay: In vitro expression of firefly-luciferase, Hep G2; type: cell-based
# How it was run: (§2)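 Both cell lines receive RNA-LNPs carrying firefly-luciferase RNA at 100 ng/mL. Lysis follows washing at 72 h post-transfection, and luciferase activity is then quantified on a luminometer using a commercial luciferase assay reagent.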
# RAW 264.7 cells [5] = assay: In vitro expression of firefly-luciferase, RAW 264.7; type: cell-based
# How it was run: as §2
# Hep G2 cells [6] = assay: In vitro toxicity (CellTiter-Glo cell viability), Hep G2; type: cell-based;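 also: percent of untreated cells luminescence signal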
# How it was run: (§3)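 First, cells receive RNA-LNPs at 1 μg/mL by transfection. After 72 hours, CellTiter-Glo reagent is added per kit protocol. Luminescence is then read and converted to cell viability.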
# RAW 264.7 cells [7] = assay: In vitro toxicity (CellTiter-Glo cell viability), RAW 264.7; type: cell-based;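 also: percent of untreated cells luminescence signal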
# How it was run: as §3
# BALB/C mice [8] = assay: In vivo expression, whole-body luminescence (IVIS)
# Method: 6-8 week old, female BALB/C mice were injected with 0.05 mg*kg-1 of RNA-LNPs encoding for firefly-luciferase by intravenous injection. At 6 hours post injection, animals were intraperitoneally injected with 15 mg/ml of Luciferin substrate and whole-body luminescence was determined by a bioluminescent in vivo imaging system (IVIS).
# MCP-I = MCP-I cytokine elevation in serum; type: in vivo; settings: cirRNA (SEQ ID NO: 1) LNPs, mice
# Method: 6-8 week old, female BALB/C mice were injected with 0.5 mg*kg-1 of RNA LNPs by intravenous injection. At 2 and 24 hours post injection, animals were bled and sera concentrations of MCP-I were determined by an immunoassay (Luminex).
# [9] = tested on: Alanine Aminotransferase (ALT); assay: Liver enzyme elevation in serum, ALT; type: in vivo; settings: cirRNA (SEQ ID NO: 1) LNPs, BALB/C mice, intravenous 0.5 MPK
# Method: (§4) 6-8 week old, female BALB/C mice were injected with 0.5 mg*kg-1 of RNA LNPs by intravenous injection. At 2 and 24 hours post injection, animals were bled and sera concentrations of Alanine Aminotransferase (ALT) and Aspartate Aminotransferase (AST) were determined by a blood chemistry analyzer.
# [10] = tested on: Aspartate Aminotransferase (AST); assay: Liver enzyme elevation in serum, AST; type: in vivo; settings: cirRNA (SEQ ID NO: 1) LNPs, BALB/C mice, intravenous 0.5 MPK
# Method: as §4
# BALB/C mice [11] = assay: Local tolerance determination by footpad injection; type: in vivo; settings: cirRNA (SEQ ID NO: 1) LNP, 0.175 mg*kg-1 subcutaneous into the footpad, 24 hours post minus prior
# Method: 6-8 week old, female BALB/C mice were injected with 0.175 mg*kg-1 RNA LNPs by subcutaneous injection into the footpad. Prior to, and 24 hours post injections, injected footpad thickness was determined by a caliper.
# [12] = cirRNA (SEQ ID NO: 1) LNPs, firefly-luciferase luminescence, Hep G2 cells
# [13] = mRNA (SEQ ID NO: 2) LNP, 100 ng/mL, 72 hours post transfection, luciferase activity
# [14] = cirRNA (SEQ ID NO: 1) LNPs, firefly-luciferase luminescence, RAW 264.7 cells
# [15] = cirRNA (SEQ ID NO: 1) LNPs, Hep G2 cells
# [16] = mRNA (SEQ ID NO: 2) LNP, 1 μg/mL, 72 hours post transfection
# [17] = cirRNA (SEQ ID NO: 1) LNPs, RAW 264.7 cells
# [18] = cirRNA (SEQ ID NO: 1) LNPs, BALB/C mice
# [19] = mRNA (SEQ ID NO: 2) LNP, 0.05 mg*kg-1 intravenous, 6 hours post injection
Compound,PDI ([1]; LNP with cirRNA (SEQ ID NO: 1)),Size ([1]; LNP with cirRNA (SEQ ID NO: 1)),PDI ([1]; LNP with mRNA (SEQ ID NO: 2)),Size ([1]; LNP with mRNA (SEQ ID NO: 2)),Zeta (mV) ([2]; LNP with cirRNA (SEQ ID NO: 1)),Zeta (mV) ([2]; LNP with mRNA (SEQ ID NO: 2)),Encapsulation Efficiency % [3] [%],Encapsulation Efficiency [3] [%],In vitro Expression HepG2 (Hep G2 cells [4]; [12]),In vitro Expression HepG2 (Hep G2 cells [4]; [13]),In vitro Expression RAW (RAW 264.7 cells [5]; [14]),In vitro Expression RAW (RAW 264.7 cells [5]; [13]),In vitro Viability HepG2 (Hep G2 cells [6]; [15]) [%],In vitro Viability HepG2 (Hep G2 cells [6]; [16]) [%],In vitro Viability RAW (RAW 264.7 cells [7]; [17]) [%],In vitro Viability RAW (RAW 264.7 cells [7]; [16]) [%],In vivo Expression (Whole Body) (BALB/C mice [8]; [18]),In vivo Expression (Whole Body) (BALB/C mice [8]; [19]),MCP-I in Sera 2 hours After 0.5 MPK Injection (MCP-I) [pg/mL],MCP-I in Sera 24 hours After 0.5 MPK Injection (MCP-I) [pg/mL],also measured
CCCCCCCCC(CCCCCC)C(=O)OCCCCCCCCN(CCCCCCCCOC(=O)C(CCCCCC)CCCCCCCC)CCCOC(=O)NCCN1CCCCCC1 (stereo not drawn) [Lipid 383],0.1744,90.41,0.1802,94.23,−0.4606,−13.05,95,86.72,6.03E+06,3.97E+01,2.93E+06,2.14E+06,97,94,89,94,4.66E+08,2.01E+08,5759.00,2458.33,"ALT in Sera (IU/L) 2 hours After 0.5 MPK Injection [9]: 99.33 IU/L; ALT in Sera (IU/L) 24 hours After 0.5 MPK Injection [9]: 116.00 IU/L; AST in Sera (IU/L) 2 hours After 0.5 MPK Injection [10]: 245.00 IU/L; AST in Sera (IU/L) 24 hours After 0.5 MPK Injection [10]: 354.67 IU/L; Footpad Thickness (24 h−0 h, mm) (BALB/C mice [11]): 0.60 mm"
CCCCCCCCC(CCCCCC)C(=O)OCCCCCCCCN(CCCCCCCCOC(=O)C(CCCCCC)CCCCCCCC)CCCOC(=O)NCCN(C)C (stereo not drawn) [Lipid 374],0.1683,105.2,0.06656,88.86,3.631,3.895,96,85.44,1.89E+07,3.70E+07,2.34E+06,5.38E+05,70,57,84,84,1.53E+08,4.07E+09,3843.00,1289.00,"ALT in Sera (IU/L) 2 hours After 0.5 MPK Injection [9]: 136.67 IU/L; ALT in Sera (IU/L) 24 hours After 0.5 MPK Injection [9]: 152.67 IU/L; AST in Sera (IU/L) 2 hours After 0.5 MPK Injection [10]: 435.67 IU/L; AST in Sera (IU/L) 24 hours After 0.5 MPK Injection [10]: 431.67 IU/L; Footpad Thickness (24 h−0 h, mm) (BALB/C mice [11]): 0.63 mm"
CCCCCCCCC(CCCCCCCC)OC(=O)CCCCCCCN(CCCCCCCCOC(=O)C(CCCCCC)CCCCCCCC)CCCOC(=O)NCCN1CCCC1 (stereo not drawn) [Lipid 350],0.1717,112.8,0.1151,105.3,6.91,0.9211,97,83.19,1.43E+07,4.34E+07,3.38E+06,5.78E+06,95,111,74,86,1.03E+08,5.29E+08,6084.33,2039.50,"ALT in Sera (IU/L) 2 hours After 0.5 MPK Injection [9]: 105.67 IU/L; ALT in Sera (IU/L) 24 hours After 0.5 MPK Injection [9]: 121.33 IU/L; AST in Sera (IU/L) 2 hours After 0.5 MPK Injection [10]: 368.00 IU/L; AST in Sera (IU/L) 24 hours After 0.5 MPK Injection [10]: 362.67 IU/L; Footpad Thickness (24 h−0 h, mm) (BALB/C mice [11]): 0.55 mm"
